Experimental data taken from patent US20180200257A1, “METHODS FOR THE TREATMENT OF INFLAMMATORY DISORDERS” (Galapagos NV, priority 2015, published 2018).

Key:
[1] = system: subjects with moderately to severely active RA who have an inadequate response to methotrexate (MTX); test: Study 2 (monotherapy) - Subject VAS mean changes (ACR patient assessment); assay type: in vivo, human; conditions: LOCF, 12 weeks results
Protocol: The scale is 100 mm, the decrease in mm is shown. […] (dotted line), 100 mg q.d. (dashed line) or 200 mg q.d. (dark solid line). The results shown in the figures are calculated using Last-Observation-Carried-Forward (LOCF), which handles missing data by assigning the value recorded at the patient's last visit to all subsequent missed visits.
(§1) Randomized, double-blind, placebo-controlled, multicenter, phase IIb dose finding study of Compound 1 (dosed as a [Compound 1:HCl:3H2O]) administered for 24 weeks as monotherapy to subjects with moderately to severely active rheumatoid arthritis who have an inadequate response to methotrexate alone
(§2) Double-blind, placebo-controlled, monotherapy study in subjects with moderately to severely active RA who have an inadequate response to methotrexate (MTX) (oral or parenteral).
(§3) 280 subjects randomized to one of 3 doses of Compound 1 (dosed as a [Compound 1:HCl:3H2O]) or to placebo, given once daily (q.d.).
(§4) Twelve weeks of treatment with Compound 1 (dosed as a [Compound 1:HCl:3H2O]) at 50 mg, 100 mg, or 200 mg q.d.; or placebo. At Week 12, all subjects on placebo and the subjects on the 50 mg dose who have not achieved 20% improvement in swollen joint count (SJC66) and tender joint count (TJC68) will be assigned to 100 mg q.d. in a blinded fashion and will continue treatment until Week 24. Subjects in the other groups will maintain their randomized treatment until Week 24.
Firstly, the patient is asked to make a vertical mark on a 100 mm Visual Analog Scale (VAS) corresponding to their general health or global disease activity on a touch screen to measure the VAS value, which is used in the formula below.
The American College of Rheumatology (ACR) composite score, which evaluates clinical improvement relative to an initial assessment, is a commonly accepted efficacy end point for clinical trials in patients with rheumatoid arthritis. The ACR score correspond to a percentage improvement in pre-set parameters, and therefore measures the evolution of the disease in a patient. For example, ACR20 denotes at least 20% improvement in tender and swollen joint counts and in three of the following end points: global assessment by the patient, global assessment by the doctor, C reactive protein (CRP), patient's pain Visual Analogue Scale and Health Assessment Questionnaire Score. The number of swollen joints, ESR and CRP correlate with radiographic progression of joint damage, whereas tender joint counts, as well as global assessments by doctors and patients, and patients' reports of pain, are sensitive to change in clinical outcomes. Physical function, as assessed by the Health Assessment Questionnaire Score, is a potent predictor of the risk of disability in rheumatoid arthritis (Felson and American College of Rheumatology Committee to Reevaluate Improvement Criteria, 2007; Felson et al., 1993).

[2] = system: subjects with moderately to severely active RA who have an inadequate response to methotrexate (MTX); test: Study 2 (monotherapy) - serum CRP values; assay type: in vivo, human
Source text: as §1, §2, §3, §4
CRP determination is available at Quest Diagnostics, Clinical Trials, Quest House, 125-135 Staines Road, Hounslow, Middlesex, TW3 3JB, United Kingdom under Catalogue n#86140.
The determination of CRP is made using Immunoturbidimetric assay for the in vitro quantitative determination of CRP in human serum and plasma on Roche/Hitachi cobas c systems, wherein human CRP agglutinates with latex particles coated with monoclonal anti-CRP antibodies. The aggregates are determined turbidimetrically (Eda et al., 1998; Price et al., 1987).
Human serum and plasma samples CRP determination was done on a Roche/Hitachi Cobas c 301 c 501/502 system which automatically calculate the analyte concentration of each sample. Samples containing precipitates are centrifuged before performing the assay.
The machine parameters are listed in Table XCI and Table XCII below, and the results at 12 weeks v using either LOCF are shown in Table XCIII and below. The Hommel-corrected p-value for the pairwise comparisons of each group with placebo is shown.
The number of subjects (N) provided in each groups corresponds to the number of subjects starting the study in each group, and the CRP data reported below corresponds to the responding subjects continuing for the entire 24 weeks on their initial treatment course.

With `O=C(Nc1nc2cccc(-c3ccc(CN4CCS(=O)(=O)CC4)cc3)n2n1)C1CC1` [Compound 1, cyclopropanecarboxylic acid {5-[4-(1,1-dioxo-thiomorpholin-4-ylmethyl)-phenyl]-[1,2,4]triazolo[1,5-a]pyridin-2-yl}-amide] the “Subject VAS mean changes (ACR patient assessment)” value (“Subject VAS mean changes” below) ([1]; 50 mg q.d., week 0) was 0.0%, the “Subject VAS mean changes” value ([1]; 50 mg q.d., week 1) was −12.3% and the “Subject VAS mean changes” value ([1]; 50 mg q.d., week 2) was −17.3%. For the same molecule, the “Subject VAS mean changes” value ([1]; 50 mg q.d., week 4) was −19.3%, the “Subject VAS mean changes” value ([1]; 50 mg q.d., week 8) was −23.6% and the “Subject VAS mean changes” value ([1]; 50 mg q.d., week 12) was −27.4%. The “Subject VAS mean changes” value ([1]; 100 mg q.d., week 0) was 0.0%, the “Subject VAS mean changes” value ([1]; 100 mg q.d., week 1) was −12.2% and the “Subject VAS mean changes” value ([1]; 100 mg q.d., week 2) was −17.2%. The “Subject VAS mean changes” value ([1]; 100 mg q.d., week 4) was −21.3%, the “Subject VAS mean changes” value ([1]; 100 mg q.d., week 8) was −29.2% and the “Subject VAS mean changes” value ([1]; 100 mg q.d., week 12) was −29.8%. The “Subject VAS mean changes” value ([1]; 200 mg q.d., week 0) was 0.0%, the “Subject VAS mean changes” value ([1]; 200 mg q.d., week 1) was −14.8% and the “Subject VAS mean changes” value ([1]; 200 mg q.d., week 2) was −19.9%. For the same molecule, the “Subject VAS mean changes” value ([1]; 200 mg q.d., week 4) was −25.0%, the “Subject VAS mean changes” value ([1]; 200 mg q.d., week 8) was −30.3% and the “Subject VAS mean changes” value ([1]; 200 mg q.d., week 12) was −28.8%. The “CRP mean CFB mg/L (LOCF)” value ([2]; 50 mg q.d., week 1, 12 weeks results) was -3.70 mg/L, the “CRP mean CFB mg/L (LOCF)” value ([2]; 50 mg q.d., week 2, 12 weeks results) was -4.16 mg/L and the “CRP mean CFB mg/L (LOCF)” value ([2]; 50 mg q.d., week 4, 12 weeks results) was -9.46 mg/L. For the same molecule, the “CRP mean CFB mg/L (LOCF)” value ([2]; 50 mg q.d., week 12, 12 weeks results) was -4.43 mg/L, the “CRP mean CFB mg/L (LOCF)” value ([2]; 50 mg q.d., week 8, 12 weeks results) was -11.16 mg/L and the “CRP mean CFB mg/L (LOCF)” value ([2]; 100 mg q.d., week 1, 12 weeks results) was -10.33 mg/L. For the same molecule, the “CRP mean CFB mg/L (LOCF)” value ([2]; 100 mg q.d., week 2, 12 weeks results) was -8.67 mg/L, the “CRP mean CFB mg/L (LOCF)” value ([2]; 100 mg q.d., week 4, 12 weeks results) was -12.08 mg/L and the “CRP mean CFB mg/L (LOCF)” value ([2]; 100 mg q.d., week 12, 12 weeks results) was -12.25 mg/L. For the same molecule, the “CRP mean CFB mg/L (LOCF)” value ([2]; 100 mg q.d., week 8, 12 weeks results) was -14.17 mg/L, the “CRP mean CFB mg/L (LOCF)” value ([2]; 200 mg q.d., week 1, 12 weeks results) was -12.58 mg/L and the “CRP mean CFB mg/L (LOCF)” value ([2]; 200 mg q.d., week 2, 12 weeks results) was -13.28 mg/L. The “CRP mean CFB mg/L (LOCF)” value ([2]; 200 mg q.d., week 4, 12 weeks results) was -13.04 mg/L, the “CRP mean CFB mg/L (LOCF)” value ([2]; 200 mg q.d., week 12, 12 weeks results) was -14.85 mg/L and the “CRP mean CFB mg/L (LOCF)” value ([2]; 200 mg q.d., week 8, 12 weeks results) was -13.86 mg/L.
